Values of other authors in patent US4386074A, “LRF Antagonists” (The Salk Institute for Biological Studies, priority 1981, dated 1983).
[ ]: non-standard residue; d: D form. pGlu = O=C1CC[C@@H](C(=O)O)N1

System: release of LH and other gonadotropins by the pituitary gland
Details: D-Ala6 versus Gly6 des-His2 peptide

[pGlu]WSY[dA]LRPG-NH2
potency as inhibitor of the release of gonadotropins relative to the same peptide with Gly in the 6-position: 4 times
